From patent publication US10370436B2, “Anti-pseudomonas Psl binding molecules and uses thereof” (priority 2011, dated 2019)

How the values were obtained:
[1] = tested on: P. aeruginosa strains PAO1, 33356, 6294, 6077; assay: P. aeruginosa acute pneumonia model, survival; format: in vivo, BALB/c mice
Protocol: FIG. 6 (A-G): Survival rates for animals treated with anti-Psl monoclonal antibodies Cam-003 or WapR-004 in a P. aeruginosa acute pneumonia model. (A-D) Animals were treated with Cam-003 at 45, 15, and 5 mg/kg and R347 at 45 mg/kg or PBS 24 hours prior to intranasal infection with (A) PAO1 (1.6×10^7 CFU), (B) 33356 (3×10^7 CFU), (C) 6294 (7×10^6 CFU), (D) 6077 (1×10^6 CFU). (E-F) Animals were treated with WapR-004 at 5 and 1 mg/kg as indicated followed by infection with 6077 at (E) (8×10^5 CFU), or (F) (6×10^5 CFU). Animals were carefully monitored for survival up to 72 hours (A-D) or for 120 hours (E-F). (G) Animals were treated with Cam-003 at 15 mg/kg or 5 mg/kg, or R347 at 15 mg/kg 24 hours prior to intranasal infection with PAO1 (4.4×10^7 CFU), and Cam-003 at 15 mg/kg 24 hours prior to intranasal infection with PAO1ΔpslA (3×10^7 CFU). In all experiments, PBS and R347 served as negative controls. Results are represented as Kaplan-Meier survival curves; differences in survival were calculated by the Log-rank test for Cam-003 vs. R347. (A) Cam-003 (45 mg/kg—P<0.0001; 15 mg/kg—P=0.0003; 5 mg/kg—P=0.0033). (B) Cam-003 (45 mg/kg—P=0.0012; 15 mg/kg—P=0.0012; 5 mg/kg—P=0.0373). (C) Cam-003 (45 mg/kg—P=0.0007; 15 mg/kg—P=0.0019; 5 mg/kg—P=0.0212). (D) Cam-003 (45 mg/kg—P<0.0001; 15 mg/kg—P<0.0001; 5 mg/kg—P=0.0001). Results are representative of at least two independent experiments. (E) [Cam-003 (5 mg/kg) vs. R347 (5 mg/kg): P=0.02; Cam-003 (1 mg/kg) vs. R347 (5 mg/kg): P=0.4848; WapR-004 (5 mg/kg) vs. R347 (5 mg/kg): P<0.0001; WapR-004 (1 mg/kg) vs. R347 (5 mg/kg): P=0.0886; WapR-004 (5 mg/kg) vs. Cam-003 (5 mg/kg): P=0.0017; WapR-004 (1 mg/kg) vs. Cam-003 (1 mg/kg): P=0.2468; R347 (5 mg/kg) vs. PBS: P=0.6676] (F) [Cam-003 (5 mg/kg) vs. R347 (5 mg/kg): P=0.0004; Cam-003 (1 mg/kg) vs. R347 (5 mg/kg): P<0.0001; WapR-004 (5 mg/kg) vs. R347 (5 mg/kg): P<0.0001; WapR-004 (1 mg/kg) vs. R347 (5 mg/kg): P<0.0001; WapR-004 (5 mg/kg) vs. Cam-003 (5 mg/kg): P=0.0002; WapR-004 (1 mg/kg) vs. Cam-003 (1 mg/kg): P=0.2628; R347 (5 mg/kg) vs. PBS: P=0.6676. (G) Cam-003 (15 mg/kg—P=0.0028; 5 mg/kg—P=0.0028)]. Results are representative of five independent experiments.
Antibodies or PBS were administered 24 hours before infection in each model. P. aeruginosa acute pneumonia, keratitis, and thermal injury infection models were performed as described (DiGiandomenico, A., et al., Proc Natl Acad Sci USA 104, 4624-4629 (2007)), with modifications. In the acute pneumonia model, BALB/c mice (The Jackson Laboratory) were infected with P. aeruginosa strains suspended in a 0.05 ml inoculum. In the thermal injury model, CF-1 mice (Charles River) received a 10% total body surface area burn with a metal brand heated to 92° C. for 10 seconds. Animals were infected subcutaneously with P. aeruginosa strain 6077 at the indicated dose. For organ burden experiments, acute pneumonia was induced in mice followed by harvesting of lungs, spleens, and kidneys 24 hours post-infection for determination of CFU.

[2] = tested on: P. aeruginosa 6077 (O11-cytotoxic); assay: P. aeruginosa corneal infection (keratitis) model; format: in vivo, mice; settings: versus negative control-treated animals, 24 hours after infection
Protocol: FIG. 8 (A-G): Anti-Psl monoclonal antibodies Cam-003 and WapR-004 are active in a P. aeruginosa keratitis model and thermal injury model. Mice were treated with a control IgG1 antibody or Cam-003 at 45 mg/kg (A, B) or 15 mg/kg (C, D) or PBS or a control IgG1 antibody or Cam-003 at 45 mg/kg or WapR-004 at 45 mg/kg or 15 mg/kg or 5 mg/kg (F, G) 24 hours prior to infection with 6077 (O11-cytotoxic—2×10^6 CFU). Immediately before infection, three 1 mm scratches were made on the left cornea of each animal followed by topical application of P. aeruginosa in a 5 μl inoculum. 24 hours after infection, the corneal pathology scores were calculated followed by removal of the eye for determination of viable CFU. Differences in pathology scores and viable CFU were determined by the Mann-Whitney U-test. (A) P=0.0001, (B) P<0.0001, (C) P=0.0003, (D) P=0.0015. (F) and (G) Cam-003 (45 mg/kg) vs. WapR-004 (45 mg/kg): P=0.018; Cam-003 (45 mg/kg) vs. WapR-004 (15 mg/kg): P=0.0025; WapR-004 (45 mg/kg) vs. WapR-004 (15 mg/kg): P=0.1331; WapR-004 (5 mg/kg) vs. Ctrl: P<0.0001. Results are representative of five independent experiments. (E) Survival analysis from Cam-003 and R347 treated CF-1 mice in a P. aeruginosa thermal injury model after 6077 infection (2×10^5 CFU) (log-rank: R347 vs. Cam-003 15 mg/kg, P=0.0094; R347 vs. Cam-003 5 mg/kg, P=0.0017). […]

In the case of “Cam-003: human IgG1 anti-Psl monoclonal antibody, VH SEQ ID NO: 1 and VL SEQ ID NO: 2”, the survival ([1]; Psl mutant strain PAO1ΔpslA, FIG. 6G) is reported as “Increased survival was not observed”, the “activity versus Cam-003-TM” value ([1]; larger infectious inoculum of 6077 (1.07×10^6), titrated antibody dose, FIG. 9E) is reported as “superior to Cam-003-TM” and the survival ([1]; strain 6077, 5 mg/kg, FIG. 6D) is reported as 90%. The survival ([1]; strain 33356, 5 mg/kg, FIG. 6B) was 80%, the survival ([1]; strain PAO1, at 120 hours, FIG. 6G) was 100% and the protection from challenge ([1]; strains 33356 and 6077, 45 and 15 mg/kg, FIGS. 6B, 6D) was “complete protection”. For the same substance, the survival ([1]; strains PAO1 and 6294, 45, 15, 5 mg/kg 24 hours prior to intranasal infection, FIGS. 6A, 6C) was “significant concentration-dependent survival”, the “bacterial counts in total eye homogenates” value [2] was “reduced bacterial counts” and the corneal pathology ([2]; FIGS. 8A-D, F-G) was “significantly less pathology”.
